# According to ChEMBL document CHEMBL1201862, “PubChem BioAssay data set” (2004):
#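 All cell lines were grown in 96-well plates and treated with compound for 48 hours. At the GI50, growth is halved.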 Calls of active or inactive are those of the source. Cut-off read from the data, not from the text of the source: active = GI50 up to about 1.1 µM and inactive = higher.
# Key:
# Experiment in all cases: growth of human tumour cells (NCI), 48 h
# T47D = system: T47D
# NCI/ADR-RES = system: NCI/ADR-RES
# HOP-18 = system: HOP-18
# M19-MEL = system: M19-MEL
# DMS-273 = system: DMS-273
# SNB-78 = system: SNB-78
# XF498 = system: XF498
# LXFL 529 = system: LXFL 529
structure (smiles),measurement,setting,value
Sc1nnc(SCc2ccccc2Cl)c2nc[nH]c12,GI50,T47D,> 100 µM (inactive)
same,GI50,NCI/ADR-RES,> 100 µM (inactive)
C[Si](C)(C)C#Cc1cc(-c2nc3ccccc3s2)ccc1N,GI50,T47D,18.7 µM (inactive)
same,GI50,NCI/ADR-RES,17.5 µM (inactive)
CCNC(=O)c1c(O)nc2ccccc2c1O,GI50,NCI/ADR-RES,> 100 µM (inactive)
COP(=O)(OC)c1ccc(NCc2cc(O)ccc2O)cc1,GI50,T47D,28.8 µM (inactive)
same,GI50,NCI/ADR-RES,31 µM (inactive)
COc1ccc2c(CN3CCCCC3CO)cc3cc(OC)c(OC)cc3c2c1 (stereo unspecified),GI50,HOP-18,13.7 µM (inactive)
same,GI50,M19-MEL,3.3 µM (inactive)
same,GI50,DMS-273,2.65 µM (inactive)
same,GI50,SNB-78,6.93 µM (inactive)
same,GI50,XF498,5.36 µM (inactive)
same,GI50,LXFL 529,4.9 µM (inactive)
O=C(/C=C/c1ccccc1)CSc1nc2ccc(I)cc2c(=O)n1Cc1ccccc1,GI50,T47D,9.16 µM (inactive)
same,GI50,NCI/ADR-RES,14 µM (inactive)
COC(=O)CC(CC(=O)C(=O)OC)C(=O)OC (stereo unspecified),GI50,SNB-78,> 100 µM (inactive)
same,GI50,LXFL 529,> 100 µM (inactive)
CC1OC(n2cc(I)c(=O)[nH]c2=O)C=CC1=O (stereo unspecified),GI50,HOP-18,16.7 µM (inactive)
same,GI50,M19-MEL,16.4 µM (inactive)
same,GI50,DMS-273,17.2 µM (inactive)
same,GI50,SNB-78,14.7 µM (inactive)
same,GI50,XF498,19.2 µM (inactive)
same,GI50,LXFL 529,10.8 µM (inactive)
Cc1ccc([C@@H]2[C@@H](C(=O)c3ccccn3)[C@H](c3ccc(C)cc3)C[C@](O)(c3ccccn3)[C@H]2C(=O)c2ccccn2)cc1,GI50,T47D,7.73 µM (inactive)
same,GI50,NCI/ADR-RES,2.86 µM (inactive)
O=C(CSc1nnc(Cc2ccccc2)o1)Nc1cccc(Cl)c1,GI50,HOP-18,87.1 µM (inactive)
same,GI50,M19-MEL,> 100 µM (inactive)
same,GI50,DMS-273,83 µM (inactive)
same,GI50,SNB-78,> 100 µM (inactive)
same,GI50,LXFL 529,44.1 µM (inactive)
C=CCCC(=O)C(=[N+]=[N-])C(=O)CCC(=O)c1ccccc1,GI50,T47D,> 10 µM (inactive)
COc1ccc2c(c1)[n+]([O-])c(-c1ccccc1)c(N)[n+]2[O-],GI50,HOP-18,33.6 µM (inactive)
same,GI50,M19-MEL,39.2 µM (inactive)
same,GI50,DMS-273,34.4 µM (inactive)
same,GI50,SNB-78,44.8 µM (inactive)
same,GI50,XF498,35 µM (inactive)
same,GI50,LXFL 529,30.5 µM (inactive)
COc1ccc(C(O)/C(=N/N)c2nc3ccc(Cl)cc3nc2O)cc1 (stereo unspecified),GI50,T47D,99.8 µM (inactive)
same,GI50,NCI/ADR-RES,> 100 µM (inactive)
CC(=O)O[C@H]1CC[C@@]2(C)C(=CC[C@@H]3[C@@H]2CC[C@](C)(c2nnc(C)o2)[C@H]3CC#N)C1,GI50,T47D,> 100 µM (inactive)
same,GI50,NCI/ADR-RES,> 100 µM (inactive)
Cc1cccc(/C=N\NC(=S)N2CCCCC2)n1,GI50,T47D,< 0.01 µM (active)
same,GI50,NCI/ADR-RES,0.0205 µM (active)
CCCn1c(=O)c(N2CCN(c3ccccc3)CC2)nc2sc3ccccc3c21,GI50,T47D,> 100 µM (inactive)
same,GI50,NCI/ADR-RES,> 100 µM (inactive)
O=C(/C=C/c1ccc(OCc2cccc(Cl)c2)cc1)NO,GI50,T47D,7.52 µM (inactive)
same,GI50,NCI/ADR-RES,5.78 µM (inactive)
COc1ccc(N[C@H]([C@@H](c2ccccc2)[S+]([O-])c2ccc(C)cc2)C(F)(F)F)cc1 (stereo partly specified),GI50,T47D,> 100 µM (inactive)
same,GI50,NCI/ADR-RES,87.3 µM (inactive)
O=c1cc(-c2ccncc2)[nH]c2cc3c(cc12)OCO3,GI50,T47D,> 100 µM (inactive)
same,GI50,NCI/ADR-RES,> 100 µM (inactive)
Nc1ccc(-c2nnc(-c3c(Cl)c(Cl)c(Cl)c(Cl)c3-c3nc4cc(C(=O)c5ccccc5)ccc4[nH]3)o2)cc1,GI50,T47D,18.3 µM (inactive)
same,GI50,NCI/ADR-RES,16 µM (inactive)
Cc1csc(NCc2ccc(Cl)cc2)n1,GI50,T47D,28.9 µM (inactive)
same,GI50,NCI/ADR-RES,46.6 µM (inactive)
COc1ccccc1Cc1ccc(C2C=CC3(CC(=O)C=C3C)C(=O)C2)o1 (stereo unspecified),GI50,NCI/ADR-RES,24.7 µM (inactive)
CC1C2=C(CCCC2=O)N(c2ccc(Cl)cc2)C2=C1C(=O)CCC2,GI50,NCI/ADR-RES,71 µM (inactive)
COC1OC(CBr)C(OC(=O)c2ccccc2)C(O)C1Br (stereo unspecified),GI50,HOP-18,> 100 µM (inactive)
same,GI50,M19-MEL,> 100 µM (inactive)
same,GI50,DMS-273,> 100 µM (inactive)
same,GI50,SNB-78,> 100 µM (inactive)
same,GI50,XF498,> 10 µM (inactive)
same,GI50,LXFL 529,> 100 µM (inactive)
Cc1ccc(C(=O)O)c(/C=C2\Cc3cc(C)cc(C)c3C2=O)c1,GI50,T47D,46.6 µM (inactive)
CN(C(=N)c1ccccc1)c1ccccc1,GI50,HOP-18,> 100 µM (inactive)
same,GI50,M19-MEL,> 100 µM (inactive)
same,GI50,DMS-273,> 100 µM (inactive)
same,GI50,SNB-78,> 100 µM (inactive)
same,GI50,LXFL 529,> 100 µM (inactive)
Nc1ccc2ncc(Nc3ccc(Cl)c(Cl)c3)nc2c1,GI50,M19-MEL,21.7 µM (inactive)
same,GI50,DMS-273,23.2 µM (inactive)
same,GI50,SNB-78,26.9 µM (inactive)
same,GI50,XF498,32.2 µM (inactive)
same,GI50,LXFL 529,29.6 µM (inactive)
O=C(CSc1nnc(-c2ccc(/N=C\c3ccc(Cl)cc3)cc2)o1)Nc1ccccc1Cl,GI50,HOP-18,> 100 µM (inactive)
same,GI50,M19-MEL,> 100 µM (inactive)
same,GI50,DMS-273,> 100 µM (inactive)
same,GI50,SNB-78,60.8 µM (inactive)
same,GI50,XF498,> 100 µM (inactive)
same,GI50,LXFL 529,> 100 µM (inactive)
CC1/C=C/C=C/CC/C=C/C=C/C=C/C=C/C(OC2OC(C)C(O)C(N)C2O)CC2OC(CC(O)C(O)CCC(O)CC(O)CC(O)CC(=O)OC(C)C(C)C1O)CC(O)C2C(=O)O (stereo unspecified),GI50,T47D,57.1 µM (inactive)
same,GI50,NCI/ADR-RES,21.3 µM (inactive)
Cc1ccc(S(=O)(=O)NC(=O)NC(C(=O)O)C(C)O)cc1 (stereo unspecified),GI50,T47D,> 100 µM (inactive)
same,GI50,NCI/ADR-RES,> 100 µM (inactive)
COc1cc(C=O)cc(/C=N/c2ccccn2)c1O,GI50,T47D,53.3 µM (inactive)
same,GI50,NCI/ADR-RES,10.8 µM (inactive)
